{
  "source": "paper PMC9127186",
  "about": "“Molecular Basis Underlying Hepatobiliary and Renal Excretion of Phenolic Acids of Salvia miltiorrhiza Roots (Danshen)” (Frontiers in Pharmacology, 2022)",
  "key": {"rat Oct1": {"biological_target": "T1, rat Oct1 (Rattus norvegicus, UniProt Q63089)", "T1 sequence (Q63089 1-556)": "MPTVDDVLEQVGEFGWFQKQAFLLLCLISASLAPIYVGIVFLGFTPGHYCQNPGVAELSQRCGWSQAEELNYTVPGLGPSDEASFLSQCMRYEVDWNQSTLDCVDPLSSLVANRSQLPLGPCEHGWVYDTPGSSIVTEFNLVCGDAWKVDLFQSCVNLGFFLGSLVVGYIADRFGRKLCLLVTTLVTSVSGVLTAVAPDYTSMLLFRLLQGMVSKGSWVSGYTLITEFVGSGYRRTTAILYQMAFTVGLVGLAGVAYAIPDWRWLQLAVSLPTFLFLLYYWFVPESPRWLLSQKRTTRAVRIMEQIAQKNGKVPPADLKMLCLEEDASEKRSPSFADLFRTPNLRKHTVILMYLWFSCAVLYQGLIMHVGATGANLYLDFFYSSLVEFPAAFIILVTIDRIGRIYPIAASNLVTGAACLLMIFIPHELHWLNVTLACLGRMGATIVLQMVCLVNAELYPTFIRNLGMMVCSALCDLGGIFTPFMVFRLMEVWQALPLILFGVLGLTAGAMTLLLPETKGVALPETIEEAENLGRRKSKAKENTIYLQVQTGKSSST", "conditions": "10 min, 100 μM"}, "human OCT1": {"biological_target": "T2, human OCT1 (Homo sapiens, UniProt O15245)", "T2 sequence (O15245 1-554)": "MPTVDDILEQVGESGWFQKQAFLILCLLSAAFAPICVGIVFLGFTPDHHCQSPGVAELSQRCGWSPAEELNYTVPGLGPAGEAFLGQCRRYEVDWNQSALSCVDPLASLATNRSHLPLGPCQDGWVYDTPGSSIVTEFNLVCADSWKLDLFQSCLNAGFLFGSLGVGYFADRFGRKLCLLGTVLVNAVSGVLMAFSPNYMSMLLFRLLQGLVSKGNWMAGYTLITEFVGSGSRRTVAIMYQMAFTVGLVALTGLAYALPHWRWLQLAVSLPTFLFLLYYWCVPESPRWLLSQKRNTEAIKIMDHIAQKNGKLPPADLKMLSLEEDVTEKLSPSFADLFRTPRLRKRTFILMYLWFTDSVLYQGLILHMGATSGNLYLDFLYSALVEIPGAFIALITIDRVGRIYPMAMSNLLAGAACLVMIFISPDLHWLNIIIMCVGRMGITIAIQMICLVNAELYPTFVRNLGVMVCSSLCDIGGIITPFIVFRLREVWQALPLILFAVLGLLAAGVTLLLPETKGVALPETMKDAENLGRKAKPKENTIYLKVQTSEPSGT", "conditions": "10 min, 100 μM"}, "rat Oatp1a1": {"biological_target": "T3, rat Oatp1a1 (Rattus norvegicus, UniProt P46720)", "T3 sequence (P46720 1-670)": "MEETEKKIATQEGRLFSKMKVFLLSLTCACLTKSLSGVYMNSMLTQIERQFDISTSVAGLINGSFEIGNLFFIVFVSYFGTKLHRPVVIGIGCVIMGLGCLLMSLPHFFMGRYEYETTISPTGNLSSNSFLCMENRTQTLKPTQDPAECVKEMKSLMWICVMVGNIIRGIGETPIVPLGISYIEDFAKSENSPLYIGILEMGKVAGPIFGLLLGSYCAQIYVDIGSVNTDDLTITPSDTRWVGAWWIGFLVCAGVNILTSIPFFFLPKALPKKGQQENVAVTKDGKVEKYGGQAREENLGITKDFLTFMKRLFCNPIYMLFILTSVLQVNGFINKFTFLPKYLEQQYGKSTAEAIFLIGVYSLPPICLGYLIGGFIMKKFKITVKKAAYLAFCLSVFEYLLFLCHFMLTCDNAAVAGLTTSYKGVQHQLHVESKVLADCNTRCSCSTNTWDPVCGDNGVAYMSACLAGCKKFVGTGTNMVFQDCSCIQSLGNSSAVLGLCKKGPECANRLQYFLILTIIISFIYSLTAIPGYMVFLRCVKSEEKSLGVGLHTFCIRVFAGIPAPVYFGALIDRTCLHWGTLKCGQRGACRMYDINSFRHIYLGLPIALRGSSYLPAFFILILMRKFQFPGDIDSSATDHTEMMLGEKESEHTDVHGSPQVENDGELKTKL", "conditions": "10 min, 100 μM"}, "rat Pept1": {"biological_target": "T4, rat Pept1 (Rattus norvegicus, UniProt P51574)", "T4 sequence (P51574 1-710)": "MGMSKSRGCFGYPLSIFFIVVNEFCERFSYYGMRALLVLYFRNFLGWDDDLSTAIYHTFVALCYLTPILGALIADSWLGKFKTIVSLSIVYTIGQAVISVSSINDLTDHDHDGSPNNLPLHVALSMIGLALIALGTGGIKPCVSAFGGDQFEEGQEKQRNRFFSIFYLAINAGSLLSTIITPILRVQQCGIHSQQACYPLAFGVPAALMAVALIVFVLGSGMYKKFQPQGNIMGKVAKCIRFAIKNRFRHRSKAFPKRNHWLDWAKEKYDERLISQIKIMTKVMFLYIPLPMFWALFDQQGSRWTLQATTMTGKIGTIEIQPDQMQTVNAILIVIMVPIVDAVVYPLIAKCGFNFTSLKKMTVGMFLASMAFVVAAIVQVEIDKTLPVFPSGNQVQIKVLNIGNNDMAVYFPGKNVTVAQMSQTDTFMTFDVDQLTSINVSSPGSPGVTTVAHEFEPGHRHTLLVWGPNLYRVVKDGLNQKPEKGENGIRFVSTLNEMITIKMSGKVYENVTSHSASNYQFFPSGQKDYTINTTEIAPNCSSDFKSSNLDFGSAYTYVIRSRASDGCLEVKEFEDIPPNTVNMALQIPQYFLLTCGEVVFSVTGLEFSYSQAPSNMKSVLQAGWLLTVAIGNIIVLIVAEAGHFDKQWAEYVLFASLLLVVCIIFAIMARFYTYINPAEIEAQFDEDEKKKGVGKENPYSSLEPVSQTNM", "conditions": "10 min, 100 μM, pH 6"}},
  "data": [
    {"smiles": "O=C(/C=C/c1ccc(O)c(O)c1)O[C@H](Cc1ccc(O)c(O)c1)C(=O)O", "note": "[Rosmarinic acid, rosmarinic acid]", "values": [
      {"measurement": "TransportTC/TransportMC ratio (net transport ratio)", "setting": "rat Oct1", "value": "1.56 ± 0.13"},
      {"measurement": "TransportTC/TransportMC ratio (net transport ratio)", "setting": "human OCT1", "value": "1.46 ± 0.57"},
      {"measurement": "TransportTC/TransportMC ratio (net transport ratio)", "setting": "rat Oatp1a1", "value": "1.45 ± 0.57"},
      {"measurement": "TransportTC/TransportMC ratio (net transport ratio)", "setting": "rat Pept1", "value": "1.14 ± 0.13"}
    ]},
    {"smiles": "O=C(/C=C/c1ccc(O)c(O)c1/C=C/c1ccc(O)c(O)c1)O[C@H](Cc1ccc(O)c(O)c1)C(=O)O", "note": "[Salvianolic acid A, salvianolic acid A]", "values": [
      {"measurement": "TransportTC/TransportMC ratio (net transport ratio)", "setting": "rat Oct1", "value": "1.13 ± 0.19"},
      {"measurement": "TransportTC/TransportMC ratio (net transport ratio)", "setting": "human OCT1", "value": "1.04 ± 0.32"},
      {"measurement": "TransportTC/TransportMC ratio (net transport ratio)", "setting": "rat Oatp1a1", "value": "2.24 ± 0.67"},
      {"measurement": "TransportTC/TransportMC ratio (net transport ratio)", "setting": "rat Pept1", "value": "1.32 ± 0.13"}
    ]}
  ]
}
